Measured values taken from PubChem BioAssay (NCI).
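Exposure lasted 48 hours, with cells grown in 96-well plates and compounds tested at five concentrations. GI50 marks 50% less growth. TGI is the concentration that stops growth completely.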

system: SN12C renal; experiment: NCI-60 cell line screen, 48 h

SMILES | GI50 [µM] | TGI [µM]
COC(=O)[C@]12CCC(C)(C)C[C@H]1C1=CC[C@@H]3[C@@]4(C)C/C(=C/c5cccnc5)C(=O)C(C)(C)[C@@H]4CC[C@@]3(C)[C@]1(C)CC2 | 4.86 | 23.4
C=CCN1C(=O)/C(=C/c2ccccc2)NC1=S |  | > 100

system: UO-31 renal; experiment: NCI-60 cell line screen, 48 h

SMILES | TGI [µM] | GI50 [µM]
O=[N+]([O-])C(C(Cl)=C(Cl)Cl)=C(N1CCOCC1)N1CCOCC1 | > 100 | 
O=[N+]([O-])c1ccccc1N=Nc1c(O)sc2ccccc12 | > 100 | 
CC(C)CSc1nc(Nc2ccccc2)c(C#N)c(-c2ccc(F)cc2)n1 | 22.1 | 2.04
COC(=O)[C@]12CCC(C)(C)C[C@H]1C1=CC[C@@H]3[C@@]4(C)C/C(=C/c5cccnc5)C(=O)C(C)(C)[C@@H]4CC[C@@]3(C)[C@]1(C)CC2 | 24.4 | 3.21
C=CCN1C(=O)/C(=C/c2ccccc2)NC1=S | > 100 | 

system: U251 CNS; experiment: NCI-60 cell line screen, 48 h

SMILES | TGI [µM] | GI50 [µM]
O=[N+]([O-])C(C(Cl)=C(Cl)Cl)=C(N1CCOCC1)N1CCOCC1 | > 100 | 
O=[N+]([O-])c1ccccc1N=Nc1c(O)sc2ccccc12 | > 100 | 
CC(C)CSc1nc(Nc2ccccc2)c(C#N)c(-c2ccc(F)cc2)n1 | 2.78 | 0.652
COC(=O)[C@]12CCC(C)(C)C[C@H]1C1=CC[C@@H]3[C@@]4(C)C/C(=C/c5cccnc5)C(=O)C(C)(C)[C@@H]4CC[C@@]3(C)[C@]1(C)CC2 | 46.9 | 13.5
C=CCN1C(=O)/C(=C/c2ccccc2)NC1=S | > 100 | 

system: OVCAR-5 ovarian; experiment: NCI-60 cell line screen, 48 h

SMILES | TGI [µM] | GI50 [µM]
O=[N+]([O-])C(C(Cl)=C(Cl)Cl)=C(N1CCOCC1)N1CCOCC1 | > 100 | 
O=[N+]([O-])c1ccccc1N=Nc1c(O)sc2ccccc12 | > 100 | 
CC(C)CSc1nc(Nc2ccccc2)c(C#N)c(-c2ccc(F)cc2)n1 | 24 | 4.03
COC(=O)[C@]12CCC(C)(C)C[C@H]1C1=CC[C@@H]3[C@@]4(C)C/C(=C/c5cccnc5)C(=O)C(C)(C)[C@@H]4CC[C@@]3(C)[C@]1(C)CC2 | 38.2 | 14.1
C=CCN1C(=O)/C(=C/c2ccccc2)NC1=S | > 100 | 

system: HCT-15 colon; experiment: NCI-60 cell line screen, 48 h

SMILES | TGI [µM] | GI50 [µM]
O=[N+]([O-])C(C(Cl)=C(Cl)Cl)=C(N1CCOCC1)N1CCOCC1 | > 100 | 
O=[N+]([O-])c1ccccc1N=Nc1c(O)sc2ccccc12 | > 100 | 
CC(C)CSc1nc(Nc2ccccc2)c(C#N)c(-c2ccc(F)cc2)n1 | > 100 | 9.06
COC(=O)[C@]12CCC(C)(C)C[C@H]1C1=CC[C@@H]3[C@@]4(C)C/C(=C/c5cccnc5)C(=O)C(C)(C)[C@@H]4CC[C@@]3(C)[C@]1(C)CC2 | 30.5 | 4.58
C=CCN1C(=O)/C(=C/c2ccccc2)NC1=S | > 100 | 

system: SF-539 CNS; experiment: NCI-60 cell line screen, 48 h

SMILES | TGI [µM] | GI50 [µM]
O=[N+]([O-])C(C(Cl)=C(Cl)Cl)=C(N1CCOCC1)N1CCOCC1 | > 100 | 
O=[N+]([O-])c1ccccc1N=Nc1c(O)sc2ccccc12 | > 100 | 
CC(C)CSc1nc(Nc2ccccc2)c(C#N)c(-c2ccc(F)cc2)n1 | 13.3 | 2.5
COC(=O)[C@]12CCC(C)(C)C[C@H]1C1=CC[C@@H]3[C@@]4(C)C/C(=C/c5cccnc5)C(=O)C(C)(C)[C@@H]4CC[C@@]3(C)[C@]1(C)CC2 | 20.7 | 7.43
C=CCN1C(=O)/C(=C/c2ccccc2)NC1=S | > 100 | 

system: IGROV1 ovarian; experiment: NCI-60 cell line screen, 48 h

SMILES | TGI [µM] | GI50 [µM]
O=[N+]([O-])C(C(Cl)=C(Cl)Cl)=C(N1CCOCC1)N1CCOCC1 | > 100 | 
O=[N+]([O-])c1ccccc1N=Nc1c(O)sc2ccccc12 | > 100 | 
CC(C)CSc1nc(Nc2ccccc2)c(C#N)c(-c2ccc(F)cc2)n1 | 10 | 0.702
COC(=O)[C@]12CCC(C)(C)C[C@H]1C1=CC[C@@H]3[C@@]4(C)C/C(=C/c5cccnc5)C(=O)C(C)(C)[C@@H]4CC[C@@]3(C)[C@]1(C)CC2 | 31.5 | 5.2
C=CCN1C(=O)/C(=C/c2ccccc2)NC1=S | > 100 | 

system: OVCAR-3 ovarian; experiment: NCI-60 cell line screen, 48 h

SMILES | TGI [µM] | GI50 [µM]
O=[N+]([O-])C(C(Cl)=C(Cl)Cl)=C(N1CCOCC1)N1CCOCC1 | > 100 | 
O=[N+]([O-])c1ccccc1N=Nc1c(O)sc2ccccc12 | > 100 | 
CC(C)CSc1nc(Nc2ccccc2)c(C#N)c(-c2ccc(F)cc2)n1 | 4.22 | 1.11
COC(=O)[C@]12CCC(C)(C)C[C@H]1C1=CC[C@@H]3[C@@]4(C)C/C(=C/c5cccnc5)C(=O)C(C)(C)[C@@H]4CC[C@@]3(C)[C@]1(C)CC2 | 27.9 | 4.16
C=CCN1C(=O)/C(=C/c2ccccc2)NC1=S | > 100 | 

system: SK-OV-3 ovarian; experiment: NCI-60 cell line screen, 48 h

SMILES | TGI [µM] | GI50 [µM]
O=[N+]([O-])C(C(Cl)=C(Cl)Cl)=C(N1CCOCC1)N1CCOCC1 | > 100 | 
O=[N+]([O-])c1ccccc1N=Nc1c(O)sc2ccccc12 | > 100 | 
CC(C)CSc1nc(Nc2ccccc2)c(C#N)c(-c2ccc(F)cc2)n1 | 32.5 | 8.13
COC(=O)[C@]12CCC(C)(C)C[C@H]1C1=CC[C@@H]3[C@@]4(C)C/C(=C/c5cccnc5)C(=O)C(C)(C)[C@@H]4CC[C@@]3(C)[C@]1(C)CC2 | > 100 | 27.5
C=CCN1C(=O)/C(=C/c2ccccc2)NC1=S | > 100 | 

system: MOLT-4 leukemia; experiment: NCI-60 cell line screen, 48 h

SMILES | TGI [µM] | GI50 [µM]
O=[N+]([O-])C(C(Cl)=C(Cl)Cl)=C(N1CCOCC1)N1CCOCC1 | > 100 | 
O=[N+]([O-])c1ccccc1N=Nc1c(O)sc2ccccc12 | > 100 | 
CC(C)CSc1nc(Nc2ccccc2)c(C#N)c(-c2ccc(F)cc2)n1 | > 100 | 11
COC(=O)[C@]12CCC(C)(C)C[C@H]1C1=CC[C@@H]3[C@@]4(C)C/C(=C/c5cccnc5)C(=O)C(C)(C)[C@@H]4CC[C@@]3(C)[C@]1(C)CC2 | 6.17 | 2.12
C=CCN1C(=O)/C(=C/c2ccccc2)NC1=S | > 100 | 

system: NCI-H226 lung; experiment: NCI-60 cell line screen, 48 h

SMILES | TGI [µM] | GI50 [µM]
O=[N+]([O-])C(C(Cl)=C(Cl)Cl)=C(N1CCOCC1)N1CCOCC1 | > 100 | 
O=[N+]([O-])c1ccccc1N=Nc1c(O)sc2ccccc12 | > 100 | 
CC(C)CSc1nc(Nc2ccccc2)c(C#N)c(-c2ccc(F)cc2)n1 | 20.1 | 3.79
COC(=O)[C@]12CCC(C)(C)C[C@H]1C1=CC[C@@H]3[C@@]4(C)C/C(=C/c5cccnc5)C(=O)C(C)(C)[C@@H]4CC[C@@]3(C)[C@]1(C)CC2 | 17.9 | 3.97
C=CCN1C(=O)/C(=C/c2ccccc2)NC1=S | > 100 | 

system: SR leukemia; experiment: NCI-60 cell line screen, 48 h

SMILES | TGI [µM] | GI50 [µM]
O=[N+]([O-])c1ccccc1N=Nc1c(O)sc2ccccc12 | > 100 | 
CC(C)CSc1nc(Nc2ccccc2)c(C#N)c(-c2ccc(F)cc2)n1 | 14 | 0.976
COC(=O)[C@]12CCC(C)(C)C[C@H]1C1=CC[C@@H]3[C@@]4(C)C/C(=C/c5cccnc5)C(=O)C(C)(C)[C@@H]4CC[C@@]3(C)[C@]1(C)CC2 | 93.6 | 4.52
C=CCN1C(=O)/C(=C/c2ccccc2)NC1=S | > 100 | 

system: MCF7 breast; experiment: NCI-60 cell line screen, 48 h

SMILES | TGI [µM] | GI50 [µM]
O=[N+]([O-])c1ccccc1N=Nc1c(O)sc2ccccc12 | > 100 | 
CC(C)CSc1nc(Nc2ccccc2)c(C#N)c(-c2ccc(F)cc2)n1 | > 100 | 22.8
COC(=O)[C@]12CCC(C)(C)C[C@H]1C1=CC[C@@H]3[C@@]4(C)C/C(=C/c5cccnc5)C(=O)C(C)(C)[C@@H]4CC[C@@]3(C)[C@]1(C)CC2 | 14.7 | 3
C=CCN1C(=O)/C(=C/c2ccccc2)NC1=S | > 100 | 

system: 786-0 renal; experiment: NCI-60 cell line screen, 48 h

SMILES | TGI [µM] | GI50 [µM]
O=[N+]([O-])C(C(Cl)=C(Cl)Cl)=C(N1CCOCC1)N1CCOCC1 | > 100 | 
CC(C)CSc1nc(Nc2ccccc2)c(C#N)c(-c2ccc(F)cc2)n1 | 5.19 | 1.9
COC(=O)[C@]12CCC(C)(C)C[C@H]1C1=CC[C@@H]3[C@@]4(C)C/C(=C/c5cccnc5)C(=O)C(C)(C)[C@@H]4CC[C@@]3(C)[C@]1(C)CC2 | 17.4 | 3.58
C=CCN1C(=O)/C(=C/c2ccccc2)NC1=S | > 100 | 

system: HL-60(TB) leukemia; experiment: NCI-60 cell line screen, 48 h

SMILES | TGI [µM] | GI50 [µM]
O=[N+]([O-])C(C(Cl)=C(Cl)Cl)=C(N1CCOCC1)N1CCOCC1 | > 100 | 
O=[N+]([O-])c1ccccc1N=Nc1c(O)sc2ccccc12 | > 100 | 
CC(C)CSc1nc(Nc2ccccc2)c(C#N)c(-c2ccc(F)cc2)n1 | > 100 | > 100
COC(=O)[C@]12CCC(C)(C)C[C@H]1C1=CC[C@@H]3[C@@]4(C)C/C(=C/c5cccnc5)C(=O)C(C)(C)[C@@H]4CC[C@@]3(C)[C@]1(C)CC2 | 5.2 | 2.06
C=CCN1C(=O)/C(=C/c2ccccc2)NC1=S | > 100 | 
